Reference: patent US12378278B2, “Mimetics of heparin oligosaccharides” (Board of Trustees of Michigan State University, priority 2019, dated 2025)

Assays:
[1] = biological target: FGF-2-heparin interaction (Homo sapiens, UniProt P09038); assay: Competition SPR on the FGF-2-heparin interaction; format: binding; conditions: FGF-2 50 nM pre-mixed with compound, biotinylated heparin on SA sensor chip
Protocol: In order to gain more insights into the structure-activity relationship between heparin and FGF-2, the competition assay was performed by the Linhardt group (FIG. 4). Biotinylated heparin was immobilized on the biosensor, and 27 pseudo-hexasaccharides (10 uM) was mixed with FGF-2 (50 nM) individually. […] For IC50 measurements, biotinylated heparin was immobilized on the SA sensor chip as described above, and FGF-2 (50 nM) was pre-mixed with different concentrations of pseudo-hexasaccharides. […] According to competition SPR results, successive fully sulfated disaccharide modules are required for potent competitive activity.

FGF-2 = FGF-2 (Homo sapiens, UniProt P09038); assay: Direct binding to immobilized FGF-2 by surface plasmon resonance (SPR); conditions: FGF-2 immobilized on CDH sensor chip
From the text: FGF-2 was immobilized on CDH sensor chip surface through EDC/NHS coupling, and fully sulfated (50), O-sulfated (50z) and N-sulfated (50m) pseudo-hexasaccharides were selected as analytes. […] The SPR results correlated well with that of heparin hexasaccharides (36, 51, 52) (Chem. Eur. J. 2006, 12 (34), 8664-8686).
FGF-2 was immobilized on sensor chip by primary amine coupling reaction. The surface of a CDH sensor chip (ForteBio, Inc., Molecular Devices, USA) was activated using freshly mixed N-hydroxysuccimide (NHS; 0.05 M) and 1-(3-(dimethylamino)propyl)-ethylcarbodiimide (EDC; 0.2 M) (1/1, v/v) in water, followed by the injection of FGF-2 (50 ug/ml) in PBS buffer. The remaining active esters were quenched by ethanolamine (1.0 M). All measurements were performed using 0.01% Tween 20 PBS buffer. Aqueous NaCl (2.0 M) was employed for regeneration to achieve baseline status.

Sequence of FGF-2-heparin interaction (P09038 143-288, species assumed): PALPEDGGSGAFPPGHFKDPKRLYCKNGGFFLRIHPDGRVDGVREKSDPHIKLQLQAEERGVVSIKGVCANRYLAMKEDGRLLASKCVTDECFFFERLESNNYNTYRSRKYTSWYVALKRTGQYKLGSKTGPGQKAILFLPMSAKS
Sequence of FGF-2 (P09038 143-288, species assumed): as above

Row | Compound | IC50 [1] | also measured
1 | CC(=O)NCCOC1OC(C(=O)O)C(OC2OC(COS(=O)(=O)O)C(OCCC(=O)NCCOC3OC(C(=O)O)C(OC4OC(COS(=O)(=O)O)C(OCCC(=O)NCCOC5OC(C(=O)O)C(OC6OC(COS(=O)(=O)O)C(OCCC(=O)O)C(O)C6NC(C)=O)C(O)C5OS(=O)(=O)O)C(O)C4NC(C)=O)C(O)C3OS(=O)(=O)O)C(O)C2NC(C)=O)C(O)C1OS(=O)(=O)O (centres unmarked) [Compound 50z] |  | Kd (FGF-2; compound as analyte): 0.94 µM
2 | N-Acetamidoethyl O-(4-O-carboxyethyl-2-deoxy-2-sulfoamino-1-thio-α-D-glucopyranoside)-(1→4)-O-(6-O-carboxyl-1-thio-α-L-idopyranosiduronate)-(1→4)-O-(2-deoxy-2-sulfoamino-1-thio-α-D-glucopyranoside)-(1→4)-O-(6-O-carboxyl-1-thio-α-L-idopyranosiduronate)-(1→4)-O-(2-deoxy-2-sulfoamino-1-thio-α-D-glucopyranoside)-(1→4)-O-(6-O-carboxyl-1-thio-α-L-idopyranosiduronate) [Compound 50m] |  | binding to FGF-2 (in words) (FGF-2): weak signal

More lines, main results first:

Row | IC50 [1] | Compound | also measured
3 | 10.8 µM | CC(=O)NCCOC1OC(C(=O)O)C(OC2OC(CO)C(OCCC(=O)NCCOC3OC(C(=O)O)C(OC4OC(COS(=O)(=O)O)C(OCCC(=O)NCCOC5OC(C(=O)O)C(OC6OC(COS(=O)(=O)O)C(OCCC(=O)O)C(O)C6NS(=O)(=O)O)C(O)C5OS(=O)(=O)O)C(O)C4NS(=O)(=O)O)C(O)C3OS(=O)(=O)O)C(O)C2NS(=O)(=O)O)C(O)C1O (centres unmarked) [Compound 50a] | 
4 | 4 µM | CC(=O)NCCOC1OC(C(=O)O)C(OC2OC(COS(=O)(=O)O)C(OCCC(=O)NCCOC3OC(C(=O)O)C(OC4OC(COS(=O)(=O)O)C(OCCC(=O)NCCOC5OC(C(=O)O)C(OC6OC(COS(=O)(=O)O)C(OCCC(=O)O)C(O)C6NS(=O)(=O)O)C(O)C5OS(=O)(=O)O)C(O)C4NS(=O)(=O)O)C(O)C3OS(=O)(=O)O)C(O)C2NC(C)=O)C(O)C1OS(=O)(=O)O (centres unmarked) [Compound 50b] | 
5 | 3.5 µM | CC(=O)NCCOC1OC(C(=O)O)C(OC2OC(COS(=O)(=O)O)C(OCCC(=O)NCCOC3OC(C(=O)O)C(OC4OC(COS(=O)(=O)O)C(OCCC(=O)NCCOC5OC(C(=O)O)C(OC6OC(COS(=O)(=O)O)C(OCCC(=O)O)C(O)C6NC(C)=O)C(O)C5OS(=O)(=O)O)C(O)C4NS(=O)(=O)O)C(O)C3OS(=O)(=O)O)C(O)C2NS(=O)(=O)O)C(O)C1OS(=O)(=O)O (centres unmarked) [Compound 50r] | 
